# Measurements taken from US10370380B2, “Octahydropyrrolo[3,4-c]pyrrole derivatives and uses thereof” (Sunshine Lake Pharma Co., Ltd., priority 2015, dated 2019).
# Tests used:
# humanized OX2 receptor = biological target: T1, humanized OX2 receptor (Homo sapiens, UniProt O43614); assay: Antagonistic effect on humanized OX2 receptor, calcium flux by fluorescence detection in HEK-293 cells; type: cell-based; details: HEK-293 cells, calcium flux induced by 10 nM orexin B; read-out: OX2 IC50
# T1 construct: expressed in transfected cells; host or cells: HEK-293 cells
# T1 sequence (O43614 1-444): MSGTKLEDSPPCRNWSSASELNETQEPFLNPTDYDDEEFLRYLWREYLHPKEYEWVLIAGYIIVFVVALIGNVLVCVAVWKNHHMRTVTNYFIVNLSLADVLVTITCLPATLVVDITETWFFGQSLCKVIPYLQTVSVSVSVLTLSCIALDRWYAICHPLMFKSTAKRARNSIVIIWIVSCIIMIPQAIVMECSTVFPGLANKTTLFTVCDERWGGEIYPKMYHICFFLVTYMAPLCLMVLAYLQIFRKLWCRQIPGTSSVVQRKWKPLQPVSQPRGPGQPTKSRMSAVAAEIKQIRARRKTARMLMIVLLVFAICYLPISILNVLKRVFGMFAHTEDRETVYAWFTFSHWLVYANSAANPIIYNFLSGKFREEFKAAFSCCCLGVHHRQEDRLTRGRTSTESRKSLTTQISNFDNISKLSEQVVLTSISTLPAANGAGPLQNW
# Description: The capability of the compounds provided herein to antagonize humanized OX2 receptors expressed in HEK-293 cells was evaluated by the influence of the compounds disclosed herein on calcium flux in cells induced by agonist detected by a method of fluorescence detection. The cells were suspended in DMEM culture medium (invitrogen), and then added to a microplate with an average density of 3×10^4 cells/well. The Hank's balanced salt solution (pH 7.4) containing fluorescent probes (Fluo4 NW, Invitrogen), probenecid (invitrogen), 20 mM […] (invitrogen) was added to the above microplate, and then incubated together with the cells at 37° C. for 60 min, further incubated at 22° C. for 15 min. The microplate was placed in a microplate reader (CellLux, PerkinElmer), and to which was added the test compound or reference antagonist or Hank's balanced salt solution, 5 min later, 10 nM of orexin B or Hank's balanced salt solution (as a blank contrast) was added. […] The experimental results were expressed as an inhibition percentage relative to a control group (the group with 10 nM of orexin B).
# The standard reference antagonist is JNJ10397049, and IC50 values were calculated by the dose-effect curve obtained from a series of concentrations of the experimental test.
# [1] = Pharmacokinetic evaluation after intravenous or gavage administration to rats; type: in vivo, SD rats; details: SD, rat, in vivo
# Description: The compounds disclosed herein were administered in form of a saline solution containing 5% DMSO, 5% Kolliphor HS 15, 2% (2% HCl) and 88% Saline, or a solution containing 10% DMSO, 10% Kolliphor HS 15 and 80% physiological saline to the subject animals. For intravenous administration, the animals were administered with a dose of 1 mg/kg or 2 mg/kg, and vein blood samples (0.3 mL) were collected at the time points of 0.083, 0.25, 0.5, 1.0, 2.0, 4.0, 6.0, 8.0 and 24 h after drug administration; plasma samples were collected by centrifugation of the vein blood samples at 3000 rpm or 4000 rpm for 10 minutes, and stored at −20° C. or −70° C. For gavage administration, the animals were administered with a dose of 2.5 mg/kg or 5 mg/kg, and vein blood samples (0.3 mL) were collected at the time points of 0.25, 0.5, 1.0, 2.0, 4.0, 6.0, 8.0 and 24 h after drug administration; plasma samples were collected by centrifugation at 3000 rpm or 4000 rpm for 10 minutes, and stored at −20° C. or −70° C. The positive control is suvorexant.
# The above plasma samples were analyzed by the LC-MS/MS system.
# [2] = Stability in human liver microsome; type: in vitro ADME; details: human, microsomes, pH 4
# Description: A mixture of the compound of the invention and human liver microsome in 0.1 M potassium phosphate buffer (containing 1.0 mM EDTA, pH=4) was incubated at 37° C., the sample concentrations at different incubation times were measured, and then the half life of the compound was calculated by plotting “the relative amount of the compound” against “incubation time” by using software GraphPad Prism 5.01, and intrinsic clearance was calculated. The experiment system shown as table 5:
# The sample was analyzed by LC/MS/MS (ESI […] source and waters xbridge C18 EB-A-1420 chromatographic column were adopted), the mobile phases were an aqueous solution with 2 mM ammonium formate and 0.1% formic acid (mobile phase A) and an methanol solution with 2 mM ammonium formate and 0.1% formic acid (mobile phase B), the flow rate was 0.4 mL/min; the column temperature was 40° C. The ratio of the sample peak area to the internal standard peak area was obtained through LC/MS/MS analysis, the content of the compound at 0 time point was as 100%, the relative content of the compound at each time point was calculated. The half life of the compound was calculated by plotting “the relative amount of the compound” against “incubation time”, and intrinsic clearance was calculated.
# The positive control is suvorexant.
compound,measurement,setting,value
"Cc1ccc(-n2nccn2)c(C(=O)N2CC3CN(c4nc5cc(Cl)ccc5o4)CC3C2)c1 (stereo not shown) [Example 1, (5-(5-chlorobenzo[d]oxazol-2-yl)hexahydropyrrolo[3,4-c]pyrrol-2(1H)-yl)(5-methyl-2-(2H-1,2,3-triazol-2-yl)phenyl)methanone]",IC50,humanized OX2 receptor,308 nM
same,AUC(0-inf),"[1]; iv, 1 mg/kg",417 ng·h/mL
same,AUC(0-t),"[1]; iv, 1 mg/kg",415 ng·h/mL
same,Cmax,"[1]; iv, 1 mg/kg",646 ng/mL
same,MRT inf,"[1]; iv, 1 mg/kg",38.3 min
same,Vd,"[1]; iv, 1 mg/kg",1.53 L/kg
same,clearance,"[1]; iv, 1 mg/kg",40 mL/min/kg
same,half-life,"[1]; iv, 1 mg/kg",40.6 min
same,AUC(0-inf),"[1]; po, 2.5 mg/kg",659 ng·h/mL
same,AUC(0-t),"[1]; po, 2.5 mg/kg",482 ng·h/mL
same,Cmax,"[1]; po, 2.5 mg/kg",181 ng/mL
same,F,"[1]; po, 2.5 mg/kg",50.1%
same,MRT inf,"[1]; po, 2.5 mg/kg",182 min
same,half-life,"[1]; po, 2.5 mg/kg",133 min
same,CLint scaled at 1 μM,[2],35.1 mL/min/kg
same,half-life at 1 μM,[2],49.5 min
